From patent publication US9943537B2, “Antitumor agent and antitumor effect enhancer” (TAIHO PHARMACEUTICAL CO., LTD., priority 2013, dated 2018)

Assays:
[1] = Body weight change of MC-2-bearing nude mice (toxicity); assay type: in vivo, mouse; settings: MC-2, Day 15, dose 1.5 mg/kg/day
Experimental: (§1) A human colon cancer cell line (KM20C) was transplanted onto the right chest of a five to six week-old BALB/cA Jcl-nu mouse. The length (mm) and the breadth (mm) of the tumor after the tumor transplantation were measured, and the tumor volume (TV) was calculated. Then, the mouse was allocated into each group such that the average TV in each group was equal, and the day when the grouping (n=6 to 7) was implemented was assumed to be Day 0.
(§2) As an index of the antitumor effect, the TV in each group was calculated, and the relative tumor volume (RTV) for Day 0 was obtained from the equation below and plotted. The chronological changes of RTV were compared among no treatment group (control), an FTD/TPI combination drug-treated group, a bevacizumab-treated group, and a FTD/TPI combination drug and bevacizumab combination-treated group. In addition, the weight loss as the toxicity was evaluated. TV(mm^3)=(length×breadth^2)/2 RTV=(TV on evaluation day)/(TV on Day 0)
(§3) Next, a test was performed in the same manner using a human breast cancer cell line (MC-2).

[2] = tested on: human colon cancer cell line (KM20C); test: KM20C xenograft in nude mice, relative tumor volume; FTD/TPI oral Days 1 to 14, bevacizumab into abdominal cavity twice a week for two weeks; assay type: in vivo
Experimental: as §1
(§4) The administration dose of the drug was 10 mL/kg, and the FTD/TPI combination drug (a mixture of FTD and TPI at a molar ratio of 1:0.5) was prepared to be 150 mg/kg/day as the dose of FTD.
as §2

[3] = tested on: human breast cancer cell line (MC-2); test: MC-2 xenograft in nude mice, relative tumor volume and days till RTV reached 2; FTD/TPI and bevacizumab; assay type: in vivo
Experimental: as §1, §2, §3
With respect to the time period during which the tumor volume doubled from Day 0 (namely, RTV becomes 2), the results of the combination-treated group were predicted from the single agent-treated group of FIGS. 5 and 6. The “length of days till RTV actually reached 2” was calculated under the assumption that RTV on the measurement day when RTV firstly exceeded 2 changes according to a linear function from RTV on the measurement day immediately before the day.

[4] = Body weight change of KM20C-bearing nude mice (toxicity); assay type: in vivo, mouse
Experimental: as §1, §4
As an index of the antitumor effect, the TV in each group was calculated, and the relative tumor volume (RTV) for Day 0 was obtained from the equation below and plotted. […] In addition, the weight loss as the toxicity was evaluated. TV(mm^3)=(length×breadth^2)/2 RTV=(TV on evaluation day)/(TV on Day 0)

[5] = Body weight change of Co-3-bearing nude mice, panitumumab study (toxicity); assay type: in vivo, mouse
Experimental: (§5) A human colon cancer cell line (Co-3) was transplanted onto the right chest of a five to six week-old BALB/cA Jcl-nu mouse. The length (mm) and the breadth (mm) of the tumor after the tumor transplantation were measured, and the tumor volume (TV) was calculated. Then, the mouse was allocated into each group such that the average TV in each group was equal, and the day when the grouping (n=6) was implemented was assumed to be Day 0.
(§6) The administration dose of the drug was 10 mL/kg, and the FTD/TPI combination drug (a mixture of FTD and TPI at the molar ratio of 1:0.5) was prepared to be 150 mg/kg/day as the dose of FTD. Panitumumab (Vectibix (registered trademark) injection, Amgen Inc.) was prepared to be 0.30, 0.89, 2.7 and 8 mg/kg/day. The FTD/TPI combination drug was orally administered on Days 1 to 14 every day, and panitumumab was administered into the abdominal cavity for two weeks at a frequency of twice a week from Day 1. To the combination-treated group, the FTD/TPI combination drug and panitumumab were administered in the same doses and the same administration schedules as those of the single agent-treated group.
As an index of the antitumor effect, TV on Days 5, 8, 12 and 15 was calculated in each group, and the relative tumor volume (RTV) for Day 0 was obtained according to the formula of Example 1 and plotted. The chronological changes of RTV were compared of no treatment group (control), the FTD/TPI combination drug-treated group, the panitumumab-treated group and the combination FTD/TPI combination drug and panitumumab treated group. In addition, the weight loss as the toxicity was evaluated.

[6] = tested on: human colon cancer cell line (Co-3); test: Co-3 xenograft in nude mice, relative tumor volume; FTD/TPI oral Days 1 to 14, panitumumab into abdominal cavity twice a week for two weeks; assay type: in vivo
Experimental: as §5, §6
[…] The chronological changes of RTV were compared of no treatment group (control), the FTD/TPI combination drug-treated group, the panitumumab-treated group and the combination FTD/TPI combination drug and panitumumab treated group. In addition, the weight loss as the toxicity was evaluated.

[7] = MC-2, Day 15, dose 1.5 mg/kg/day
[8] = Co-3, Day 29, dose 0.30 mg/kg/day
[9] = Co-3, Day 29, dose 0.89 mg/kg/day
[10] = Co-3, Day 29, dose 2.7 mg/kg/day

Substance: Bevacizumab: anti-VEGF humanized monoclonal antibody (Avastin injection, Chugai Pharmaceutical Co., Ltd.)
- Body weight change (%, mean ± SD) [1]: 7.7 ± 3.7%
- IR (%) tumor growth inhibition rate ([2]; Day 29, dose 0.20 mg/kg/day): 34.3%
- RTV (mean ± SD) ([2]; Day 29, dose 0.20 mg/kg/day): 8.93 ± 2.79
- IR (%) tumor growth inhibition rate ([2]; Day 29, dose 0.55 mg/kg/day): 28.5%
- RTV (mean ± SD) ([2]; Day 29, dose 0.55 mg/kg/day): 9.71 ± 4.99
- IR (%) tumor growth inhibition rate ([2]; Day 29, dose 1.7 mg/kg/day): 39.7%
- RTV (mean ± SD) ([2]; Day 29, dose 1.7 mg/kg/day): 8.19 ± 2.29
- IR (%) tumor growth inhibition rate ([2]; Day 29, dose 5 mg/kg/day): 38.6%
- RTV (mean ± SD) ([2]; Day 29, dose 5 mg/kg/day): 8.34 ± 1.82
- IR (%) tumor growth inhibition rate [3, 7]: 41.1%
- RTV (mean ± SD) [3, 7]: 3.06 ± 0.88
- Length of Days (day) till RTV actually reached 2 ([3]; MC-2, single agent, bevacizumab 1.5 mg/kg/day): 7.71 days
- Body weight change (%, mean ± SD) ([4]; Day 29, dose 0.20 mg/kg/day): 9.7 ± 5.1%
- Body weight change (%, mean ± SD) ([4]; Day 29, dose 0.55 mg/kg/day): 3.2 ± 6.0%
- Body weight change (%, mean ± SD) ([4]; Day 29, dose 1.7 mg/kg/day): 5.2 ± 6.7%

Substance: Panitumumab: anti-EGFR human-type fully monoclonal antibody (Vectibix injection, Amgen Inc.)
- Body weight change (%, mean ± SD) [5, 8]: −11.3 ± 5.3%
- Body weight change (%, mean ± SD) [5, 9]: −6.7 ± 4.3%
- Body weight change (%, mean ± SD) [5, 10]: −1.2 ± 3.1%
- Body weight change (%, mean ± SD) ([5]; Co-3, Day 29, dose 8 mg/kg/day): −4.5 ± 4.5%
- IR (%) tumor growth inhibition rate [6, 8]: 23.0%
- RTV (mean ± SD) [6, 8]: 18.15 ± 6.79
- IR (%) tumor growth inhibition rate [6, 9]: 35.9%
- RTV (mean ± SD) [6, 9]: 15.10 ± 7.51
- IR (%) tumor growth inhibition rate [6, 10]: 46.1%
- RTV (mean ± SD) [6, 10]: 12.71 ± 4.37
- IR (%) tumor growth inhibition rate ([6]; Co-3, Day 29, dose 8 mg/kg/day): 45.0%
- RTV (mean ± SD) ([6]; Co-3, Day 29, dose 8 mg/kg/day): 12.97 ± 2.33
